In one series the test system is Kunming mice. Nature of the series: Acetic acid-induced abdominal writhing test in mice. The series is classed as in vivo. As for the experimental part:
Kunming mice, SPF KM mice purchased from […] SLAC LABORATORY ANIMAL CO. LTD and kept in normal environment.
The compounds were dissolved in water for injection at a concentration of 4 mg/ml, 2 mg/ml and 1 mg/ml and were given intragastrically to animals.
Three different doses (10, 20, and 40 mg/kg) were administered to the test groups.
Aspirin was used as a positive control and acetic acid writhing test was used.
30 mice (half male and half female) weighing 18-23 g were divided into five groups, including negative control group, positive control group, low dose group, medium dose group and high dose group:
Mice in test group received test drug (10 mg/kg, 20 mg/kg, 40 mg/kg) via intragastric administration. Negative control group received physiological saline (20 ml/kg) via oral administration. Positive control group received aspirin (200 mg/kg) via oral administration. One hour later, each group received 0.7% acetic acid 10 ml/kg intraperitoneally. Five minutes later, the number of writhes was counted within the subsequent 15 min period; inhibition percentage of writhing response in each test group was calculated by the following equation: […]

Series [1] deals with opioid receptor subtype μ (Homo sapiens, UniProt P35372). Description: Competitive binding to opioid receptor subtype μ, [3H]Diprenorphine. As for the experimental part:
(§1) The respective test compounds were added to the sample tube (final concentration of 10^−5M), incubated at 37° C. for 30 min and placed in ice bath to terminate the reaction. The reaction mixture was filtered through GF/C (Whatman) glass fiber filter by vacuum filtration on a Millipore sample collector. The filter was washed three times with 50 mM Tris-HCl (pH7.4), each with 4 ml; dried and transferred into a 0.5 ml Eppendorf tube, in which 0.5 ml lipophilic scintillation fluid was added. Radioactivity was detected by a LS6500 scintillation counter. Each concentration had three duplicate test tubes and each separate test was repeated 3 to 4 times.
(§2) Specific binding CMP value for each sample tube=overall binding CPM value for each sample tube−CPM value of non-specific binding tube.
(§3) [Inhibition percentage of competitive binding between the test compound and different opioid receptor subtypes (%)=(100%−specific binding (CPM value)of sample tube/specific binding(CPM value)of solvent group×100%)]
(§4) Average was taken for each test drug from three duplicate tubes; each test was repeated two or more times.

Another series concerns mice. Nature of the series: Sedative effects in mice (spontaneous activities). The conditions noted are these: single dose 20 mg/kg. Set-up: unit not given here. It counts as in vivo. As for the experimental part: Spontaneous activities of the mice were recorded by alternating current tube, Sedative effects were tested after single dose (20 mg/kg).
For the next series, the target named is T1, 5-HT2A receptor (Homo sapiens, UniProt P28223).
T1 construct: expressed in transfected cells; host or cells: HEK293
Description: In-vitro competitive binding to 5-HT2A receptor, [3H]-Ketanserin, transformed HEK293 cells. As for the experimental part:
All test samples were dissolved in DMSO at a concentration of 0.01 mol/L, and then diluted with deionized water to 100 umol/L.
HEK293 cells were transformed with plasmid carriers containing the gene coding for 5-HT2A receptor protein by using calcium phosphate transformation. Stable cell strains which could stably express 5-HT2A receptor protein were obtained from the transformed cells by cultivating in a culture media containing G418, selecting monoclones of the cell and performing radioactive ligand binding assay.
Beckman LS 6500 Scintillation Counter.
HEK-293 cells were infected with recombined viruses containing various genes described above. […] Cells were centrifuged at 1000 rpm for 5 min Culture media was discarded, and cell bodies were collected and stored at −20° C. in a freezer. The cell bodies were resuspended with Tris-HCl reaction buffer during assay.
After incubation at 37° C. for 15 min, the reaction mixture was immediately transferred into ice bath to terminate the reaction; the reaction mixture was quickly filtered through GF/C glass cellulose filter on a Millipore cell sample collector, and was then washed with eluting solution (50 mM Tris-HCl, PH 7.7, 3 ml×3) and dried in a microwave for 8-9 min. The filter was transferred into a 0.5 ml centrifuge tube, and 500 μl lipid soluble scintillation fluid was added. The centrifuge tube was allowed to stand in darkness for more than 30 min. Radioactivity was determined by counting Inhibition percentage of each compound on isotope ligand binding was calculated according to the following equation:
inhibition percentage(I %)=cpm of overall binding tube−cpm of compound/cpm of overall binding tube−cpm of nonspecific binding tube×100%.
Each compound was tested in two duplicate test tubes and two separate tests were performed.

Series [2] can be described thus: Animal model study of II-9 (repeated dosing, addiction potential, oral absorption). The series is classed as in vivo.
In series [3] the target is opioid receptor subtype κ (Homo sapiens, UniProt P41145). Description: Competitive binding to opioid receptor subtype κ, [3H]Diprenorphine. As for the experimental part:
as §1, §2, §3, §4

Series [4] is described as follows: Acute toxicity, single intragastric administration to mice. As to conditions: mouse, in vivo, po, Bliss method. An excerpt:
Statistics were made according to Bliss method (“Experimental Design and Statistical Basis for Drug Evaluation”, Changxiao Liu, Ruiyuan Su, first edition, Military Medical Science Press, 1993, 80-90).

In series [5] the target is opioid receptor subtype δ (Homo sapiens, UniProt P41143). Nature of the series: Competitive binding to opioid receptor subtype δ, [3H]Diprenorphine. As for the experimental part:
as §1, §2, §3
Average was taken for each test drug from three duplicate tubes; each test was repeated two or more times. Data were presented as mean±SE and statistical comparison was made by ANOVA.

Series [6] concerns the target T2, 5-HT reuptake by brain synapses (Rattus norvegicus, UniProt P31652).
T2 construct: forehead cortex was obtained for [^3H]5-HT, [^3H]NA reuptake test; from tissue; host or cells: rat (SD) forebrain cortex synaptosomes
Nature of the series: [3H]5-HT reuptake test in rat brain synapses. The series is classed as biochemical. As to the method: The method was as follows:
Male SD rats were killed by cervical dislocation, heads were immediately cut and brains were obtained and put on ice, related brain tissues were dissected (forehead cortex was obtained for [^3H]5-HT, [^3H]NA reuptake test, corpus striatum was obtained for [^3H]DA reuptake).
After the sample was weighed, 10 folds (V/W) ice cold 0.32 mol/L sucrose solution was added.
According to [a. […] 5-HT was added and after incubation in water bath at 37° C. for 10 min, the reaction mixture was immediately taken out of the water bath and 2 ml ice cold 150 mmol/L Tris-HCl was added to terminate the reaction. The sample was collected on a round glass fiber filter by vacuum filtration and washed three times with 3 ml ice cold Tris-HCl buffer. The filter membrane was removed, dried in a far-infrared oven for 15 min, then transferred into a EP tube, in which 1.5 ml scintillation fluid was added, left overnight and detected by a scintillation counter. The test sample was not added into solvent controlled overall binding tube or non-specific binding tube. 50 μl solvent was added into the overall binding tube, and in [^3H] 5-HT reuptake test, 600 μmol/L cocaine was added into the non-specific binding tube.

Setting [7] is: affinity to 5-HT2A receptor, concentration gradient test.

Structures are written as SMILES. Marks after values point to notes of the source that are not given here.

Broadly, the inhibition is the drop in the measured response relative to a control, in per cent. For orientation: IC50 means the concentration at which inhibition is half-maximal. What is called Ki is the dissociation constant of the complex between target and ligand, obtained from inhibition or displacement. One may read the LD50 as the dose expected to kill half of the subjects tested.

`N#Cc1ccc2ccn(CCCCN3CCC(c4noc5cc(F)ccc45)CC3)c2c1` [II-9, 1-(4-(4-(6-fluorobenzo[d]isoxazol-3-yl)piperidin-1-yl)butyl)-1H-indole-6-carbonitrile]: the “Inhibition percentage of writhing response” value in the series on Kunming mice (10 mg/kg intragastric administration) was 100** %; in the series on Kunming mice (20 mg/kg intragastric administration) it was 99.05* %; with Kunming mice (40 mg/kg intragastric administration), 100** %. Also, in series [1], the “affinity to opioid receptor subtype μ (in words)” value was “no obvious affinity”. Further, the inhibition at 10 µM in [1] (tested concentration 10^−5 mol/L, read-out: μ inhibition percentage of competitive binding) was 53.4 ± 0.7%; on 5-HT2A receptor (read-out: 5-HT2A [3H]-Ketanserin inhibition percentage) it was 99.3%; in series [3] (tested concentration 10^−5 mol/L, read-out: κ inhibition percentage of competitive binding), 28.5 ± 1.3%; in series [5] (tested concentration 10^−5 mol/L, read-out: δ inhibition percentage of competitive binding) it was 0%; in series [6] (final concentration 10 umol/L, rat brain synapses, read-out: 5-HTU [3H] 5-HT reuptake inhibition percentage Mean), 105%. Also, the Sedative effect in the series with mice is 47*. Further, at 5-HT2A receptor (setting [7]), the IC50 came out at 2.92 nM. The Ki at 5-HT2A receptor (setting [7]) came to 1.97 nM. For the same molecule, the “inhibitory activity on 5-HT2A (in words)” value at 5-HT2A receptor (compared with Aripiprazole) is “potent inhibitory activities”. Further, in series [2] (after repeated dosing), the drug tolerance entry was “No drug tolerance is observed”. Besides, the potential for addiction result in [2] (in vivo) was “rather low”. Further, the “absorption through oral administration” value in series [2] (oral) was “well absorbed”. Further, in [3], the “affinity to opioid receptor subtype κ (in words)” value is listed as “no obvious affinity”. Further, the 50% lethal dose (LD50) in [4] stood at 800 mg/kg. For the same molecule, the “affinity to opioid receptor subtype δ (in words)” value in series [5] is on record as “no obvious affinity”. The “inhibitory activity on 5-HT reuptake (in words)” value in series [6] (at 10 μmol/L, compared with Dutoxetine) is “potent inhibitory activities”.

The values are drawn from patent publication US20110306638A1, “BENZISOXAZOLE PIPERIDINYL DERIVATIVES, PHARMACEUTICAL COMPOSITIONS COMPRISING THE DERIVATIVES AND THEIR USE” (NHWA PHARMA. CORPORATION, priority 2008, published 2011).
